In patent publication US12162858B2, “Quinoline derivatives as inhibitors of AXL/MER RTK and CSF1R” (QURIENT CO., LTD., priority 2018, dated 2024):

target: CSF1R (Homo sapiens, UniProt P07333); assay: Cellular CSF1R inhibition ELISA (p-CSF1R, M-CSF-induced) using THP-1 cells; format: cell-based; parameters: THP-1 cells act as a model for human monocytes; endogenous in cells; host or cells: THP-1
Outline: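 THP-1 cells (2×10^5/well, RPMI/10% FBS) were treated with compound, 10 doses in 3-fold steps, for 24 h at 37 °C in 0.2% DMSO final. They were then stimulated 5 min with human M-CSF (10 ng/ml final) and lysed. p-CSF1R was read by sandwich ELISA (HRP/TMB), with a sigmoidal dose-response fit.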

CSF1R, sequence (P07333 20-972): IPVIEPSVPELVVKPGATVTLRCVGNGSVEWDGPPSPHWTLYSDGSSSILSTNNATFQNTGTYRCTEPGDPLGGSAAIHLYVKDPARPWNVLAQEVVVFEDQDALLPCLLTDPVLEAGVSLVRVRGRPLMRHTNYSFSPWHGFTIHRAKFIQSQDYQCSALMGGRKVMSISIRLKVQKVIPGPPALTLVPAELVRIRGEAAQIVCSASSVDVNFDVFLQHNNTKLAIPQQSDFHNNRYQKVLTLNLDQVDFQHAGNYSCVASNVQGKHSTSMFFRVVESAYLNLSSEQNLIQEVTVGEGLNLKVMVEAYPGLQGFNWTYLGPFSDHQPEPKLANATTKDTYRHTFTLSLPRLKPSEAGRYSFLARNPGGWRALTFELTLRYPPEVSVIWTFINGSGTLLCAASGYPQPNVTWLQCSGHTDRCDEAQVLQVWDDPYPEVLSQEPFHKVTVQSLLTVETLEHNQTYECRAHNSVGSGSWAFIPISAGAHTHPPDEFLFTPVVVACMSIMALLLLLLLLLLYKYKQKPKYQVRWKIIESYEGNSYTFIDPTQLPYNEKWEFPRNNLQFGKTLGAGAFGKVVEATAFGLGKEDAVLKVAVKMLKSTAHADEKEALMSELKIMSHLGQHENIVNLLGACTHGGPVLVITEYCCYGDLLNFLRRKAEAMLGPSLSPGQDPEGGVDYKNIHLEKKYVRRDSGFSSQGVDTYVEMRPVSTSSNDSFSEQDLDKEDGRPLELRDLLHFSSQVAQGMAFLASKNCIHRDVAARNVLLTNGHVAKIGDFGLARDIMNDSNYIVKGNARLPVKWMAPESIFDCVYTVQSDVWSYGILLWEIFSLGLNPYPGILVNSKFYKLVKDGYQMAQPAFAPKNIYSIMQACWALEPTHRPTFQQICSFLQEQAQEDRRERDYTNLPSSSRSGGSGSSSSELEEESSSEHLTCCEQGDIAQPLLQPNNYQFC

Q: How did the IC50 turn out when `COc1cc2nccc(Oc3ccc(NC(=O)c4nn(CC(C)N)cc4OCC(F)(F)F)nc3)c2cc1OC` (stereo not shown) [Compound 63] was run?
A: 500 to 1000 nM

Q: With `COc1cc2nccc(Oc3ccc(NC(=O)c4nn(CC(C)(F)F)cc4OCC(F)(F)F)nc3)c2cc1OC` [Compound 64] as the compound, how does the IC50 read?
A: < 500 nM

Q: `COc1cc2nccc(Oc3ccc(NC(=O)c4nn(CCOC5CCC5)cc4OCC(F)(F)F)nc3)c2cc1OC` [Compound 65] was tested. Which IC50 did it give?
A: < 500 nM

Q: `COc1cc2nccc(Oc3ccc(NC(=O)c4nn(C5COC5)cc4OCC(F)(F)F)nc3)c2cc1OC` [Compound 66] was tested. Which IC50 did it give?
A: < 500 nM

Q: `COc1cc2nccc(Oc3ccc(NC(=O)c4nn(CCO)cc4OCC(F)(F)F)nc3)c2cc1OC` [Compound 67] was tested. Which IC50 did it give?
A: < 500 nM

Q: `COc1cc2nccc(Oc3ccc(NC(=O)c4nn(CCCN)cc4OCC(F)(F)F)nc3)c2cc1OC` [Compound 68] was tested. Which IC50 did it give?
A: < 500 nM

Q: Which IC50 does the source give for `COc1cc2nccc(Oc3ccc(NC(=O)c4nn(C5CCCCC5)cc4OCC(F)(F)F)nc3)c2cc1OC` [Compound 69] here?
A: < 500 nM

Q: How did the IC50 turn out when `COc1cc2nccc(Oc3ccc(NC(=O)c4nn(C5CCNC5)cc4OCC(F)(F)F)nc3)c2cc1OC` (stereo not shown) [Compound 70] was run?
A: 500 to 1000 nM

Q: For `COc1cc2nccc(Oc3ccc(NC(=O)c4nn(CC5CCCC5)cc4OCC(F)(F)F)nc3)c2cc1OC` [Compound 71], which IC50 is on record?
A: < 500 nM

Q: For `COc1cc2nccc(Oc3ccc(NC(=O)c4nn(CC5CCNC5)cc4OCC(F)(F)F)nc3)c2cc1OC` (stereo not shown) [Compound 72], which IC50 is on record?
A: < 500 nM

Q: How did the IC50 turn out when `COc1cc2nccc(Oc3ccc(NC(=O)c4nn(CC5CNC5)cc4OCC(F)(F)F)nc3)c2cc1OC` [Compound 73] was run?
A: < 500 nM

Q: How did the IC50 turn out when `COc1cc2nccc(Oc3ccc(NC(=O)c4nn(C5CCNC5)cc4OCC(F)(F)F)c(F)c3)c2cc1OC` (stereo not shown) [Compound 74] was run?
A: ≥ 1000 nM

Q: How did the IC50 turn out when `COc1cc2nccc(Oc3ccc(NC(=O)c4nn(CCN)cc4OCC(F)(F)F)c(F)c3)c2cc1OC` [Compound 75] was run?
A: ≥ 1000 nM

Q: Which IC50 does the source give for `COc1cc2nccc(Oc3ccc(NC(=O)c4nn(CC(C)O)cc4OCC(F)(F)F)c(F)c3)c2cc1OC` (stereo not shown) [Compound 76] here?
A: ≥ 1000 nM

Q: Which IC50 does the source give for `COc1cc2nccc(Oc3ccc(NC(=O)c4nn(CCC(F)(F)F)cc4OCC4CCC4)nc3)c2cc1OC` [Compound 166] here?
A: ≥ 1000 nM

Q: For `CCCn1cc(OCC2CCC2)c(C(=O)Nc2ccc(Oc3ccnc4cc(OC)c(OC(F)(F)F)cc34)cn2)n1` [Compound 167], which IC50 is on record?
A: ≥ 1000 nM

Q: `COc1cc2nccc(Oc3ccc(NC(=O)c4nn(CCNC5CC5)cc4OCC(F)(F)F)nc3)c2cc1OC` [Compound 168] was tested. Which IC50 did it give?
A: < 500 nM

Q: For `COc1cc2nccc(Oc3ccc(NC(=O)c4nn(CC5CCN(C)C5)cc4OCC(F)(F)F)nc3)c2cc1OC` (stereo not shown) [Compound 169], which IC50 is on record?
A: < 500 nM

Q: For `COc1cc2nccc(Oc3ccc(NC(=O)c4nn(C5CC5)cc4OCCC(F)(F)F)nc3)c2cc1OC` [Compound 170], which IC50 is on record?
A: < 500 nM

Q: How did the IC50 turn out when `COCCOc1cn(C2CC2)nc1C(=O)Nc1ccc(Oc2ccnc3cc(OC)c(OC)cc23)nn1` [Compound 171] was run?
A: ≥ 1000 nM

Q: With `COc1cc2nccc(Oc3ccc(NC(=O)c4nn(C5CC5)cc4OCC4CNC4)nn3)c2cc1OC` [Compound 172] as the compound, how does the IC50 read?
A: ≥ 1000 nM

Q: `COc1cc2nccc(Oc3ccc(NC(=O)c4nn(C5CC5)cc4OCCC(F)(F)F)nn3)c2cc1OC` [Compound 173] was tested. Which IC50 did it give?
A: ≥ 1000 nM

Q: How did the IC50 turn out when `COc1cc2nccc(Oc3ccc(NC(=O)c4nn(CC(C)O)cc4OCC4CN(C)C4)nc3)c2cc1OC` (stereo not shown) [Compound 174] was run?
A: ≥ 1000 nM

Q: Which IC50 does the source give for `COc1cc2nccc(Oc3ccc(NC(=O)c4nn(CC(C)O)cc4OCC(F)F)nc3)c2cc1OC` (stereo not shown) [Compound 175] here?
A: < 500 nM

Q: Which IC50 does the source give for `COc1cc2nccc(Oc3ccc(NC(=O)c4nc(CCC(F)(F)F)oc4CCC4CCC4)nc3)c2cc1OC` [Compound 176] here?
A: ≥ 1000 nM

Q: `CCCn1cc(OCCN(C)C)c(C(=O)Nc2ccc(Oc3ccnc4cc(OC)c(OC)cc34)cn2)n1` [Compound 177] was tested. Which IC50 did it give?
A: ≥ 1000 nM

Q: How did the IC50 turn out when `COc1cc2nccc(Oc3ccc(NC(=O)c4cc(C5CC5)cnc4OCC(F)(F)F)nc3)c2cc1OC` [Compound 178] was run?
A: < 500 nM

Q: `COc1cc2nccc(Oc3ccc(NC(=O)c4sc(C5CC5)cc4OCC(F)(F)F)nc3)c2cc1OC` [Compound 179] was tested. Which IC50 did it give?
A: < 500 nM
